Among the test systems are HT-29; RPMI-8226; M19-MEL; SNB-19; SF-295; UACC-257; M14; 786-0; COLO 205; UO-31; A498; OVCAR-3; K562; HCC 2998; OVCAR-5; HL-60.
Common to all, as to experiment: NCI tumour cell line growth inhibition, 48 h

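Briefly, cells in 96-well plates were exposed to five compound concentrations for 48 h, and endpoints were estimated by linear interpolation. Abbreviation: GI50, concentration required for 50% inhibition of growth.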 The source made the active and inactive calls. No stated cut-off is given here; in the data, active = GI50 up to about 1.1 µM and inactive = higher. Where only a bound is given, the exact number is not on record here.

The record followed here is ChEMBL document CHEMBL1201862, “PubChem BioAssay data set” (2004).

As for `CCCCOC(=O)NC(=O)c1cn(C2CCCCC2)c(=O)[nH]c1=O`, the GI50 in the assay on HT-29 is 59.4 µM (inactive); with RPMI-8226, 60.8 µM (inactive); with M19-MEL, 71.4 µM (inactive); in the assay with SNB-19 it was 26.5 µM (inactive); with SF-295, 54.3 µM (inactive); with UACC-257, > 100 µM (inactive). Moreover, the GI50 is 50.7 µM (inactive) with M14; 18.6 µM (inactive) in the assay on 786-0; > 100 µM (inactive) in the assay with COLO 205; 21.3 µM (inactive) with UO-31; 17.1 µM (inactive) in the assay on A498; 40.6 µM (inactive) in the assay with OVCAR-3. The GI50 in the assay with K562, in the assay on HCC 2998, in the assay with OVCAR-5 and in the assay on HL-60 was > 100 µM (inactive) in each case.

Turning to `S=c1cc(S)c2c(=S)sc3nc4ccccn4c(=S)c3c2s1`, the GI50 is 45.2 µM (inactive) with HT-29; > 100 µM (inactive) with RPMI-8226; 35.5 µM (inactive) in the assay on M19-MEL; 52.5 µM (inactive) in the assay with SNB-19; > 100 µM (inactive) in the assay with SF-295; 35.8 µM (inactive) in the assay with M14. The GI50 was 75.5 µM (inactive) in the assay with 786-0; 72.4 µM (inactive) in the assay with UO-31; > 100 µM (inactive) in the assay on A498; 28.2 µM (inactive) in the assay on OVCAR-3; 18.5 µM (inactive) in the assay on K562; 39.5 µM (inactive) with HCC 2998. Further, the GI50 in the assay with OVCAR-5 is > 100 µM (inactive); in the assay with HL-60, 36.1 µM (inactive).

With `S=C(N/N=C/c1ccco1)NC12CC3CC(CC(C3)C1)C2`, the GI50 in the assay on HT-29 was 31.4 µM (inactive); in the assay with M19-MEL it was > 100 µM (inactive); in the assay on SNB-19 it was > 100 µM (inactive); in the assay with SF-295, > 100 µM (inactive); in the assay on UACC-257 it was 32.2 µM (inactive); in the assay on M14 it was > 100 µM (inactive). The GI50 in the assay with 786-0 is 62.7 µM (inactive); with COLO 205 it was 15.3 µM (inactive); with UO-31 it was > 100 µM (inactive); in the assay on A498 it was > 100 µM (inactive); in the assay on OVCAR-3 it was 84.1 µM (inactive); in the assay with K562, 43.8 µM (inactive). For the same compound, the GI50 in the assay on HCC 2998 was 74.8 µM (inactive); with OVCAR-5, > 100 µM (inactive).

`Cc1ccc(S(=O)(=O)OCC23CCC(CC2)C2CC23)cc1` (configuration not stated): the GI50 with HT-29 was 31.5 µM (inactive); in the assay with RPMI-8226 it was 25.9 µM (inactive); in the assay with M19-MEL it was 43.2 µM (inactive); in the assay with SNB-19, 96.6 µM (inactive); in the assay with SF-295 it was 35.1 µM (inactive); in the assay on UACC-257, 28.6 µM (inactive). For the same compound, the GI50 was 92 µM (inactive) in the assay with M14; 61.2 µM (inactive) in the assay with 786-0; 61.8 µM (inactive) in the assay on COLO 205; 34.4 µM (inactive) with UO-31; 43.3 µM (inactive) in the assay with A498; 31.9 µM (inactive) in the assay with OVCAR-3. Besides, the GI50 in the assay on K562 is 39.6 µM (inactive); in the assay on HCC 2998 it was > 100 µM (inactive); in the assay on OVCAR-5 it was > 100 µM (inactive); with HL-60, 17.4 µM (inactive).

As to `O=C(COC(=O)c1cccc2c(=O)c3ccccc3[nH]c12)Nc1ccccc1`, the GI50 in the assay on HT-29 was 31.8 µM (inactive); in the assay with RPMI-8226 it was 23.7 µM (inactive); in the assay with M19-MEL, 33.6 µM (inactive); with SNB-19 it was > 100 µM (inactive); in the assay on SF-295 it was 50.8 µM (inactive); in the assay with UACC-257, 38.2 µM (inactive). Besides, the GI50 was 38 µM (inactive) with M14; > 100 µM (inactive) in the assay with 786-0; 21.7 µM (inactive) with COLO 205; 22.2 µM (inactive) in the assay on UO-31; 67.8 µM (inactive) in the assay with A498; 53.2 µM (inactive) in the assay on OVCAR-3. The figures for the GI50 with K562, in the assay on HCC 2998 and in the assay on HL-60 were 33.2 µM (inactive), > 100 µM (inactive) and 16.7 µM (inactive), respectively.

On to `CNc1nnnn1C1OC(CO)C(O)C1O` (configuration not stated), for which the GI50 in the assay with HT-29, in the assay on RPMI-8226, with M19-MEL, with SF-295, in the assay on UACC-257 and in the assay on M14 was > 100 µM (inactive) each time. Also, the GI50 in the assay on 786-0, with COLO 205, with UO-31, in the assay on A498, in the assay on OVCAR-3 and with K562 was > 100 µM (inactive) throughout. Moreover, the GI50 in the assay with HCC 2998 and with OVCAR-5 was > 100 µM (inactive) each time.

For the compound `CCN(CC)C(=O)CC12CCCCC1=Nc1ccccc12` (configuration not stated), the GI50 in the assay with HT-29, with RPMI-8226, with M19-MEL, in the assay on SF-295, in the assay with UACC-257 and in the assay with M14 was > 100 µM (inactive) throughout. Also, the GI50 with 786-0, with COLO 205, with A498, in the assay with OVCAR-3, in the assay on K562 and with HCC 2998 was > 100 µM (inactive) each time. For the same compound, the GI50 in the assay on OVCAR-5 and in the assay on HL-60 was > 100 µM (inactive) throughout.

Regarding `Cn1ccnc1Cn1cc(-c2cccc(-c3cn[nH]c3)c2)cn1`, the GI50 in the assay on RPMI-8226, in the assay on M19-MEL, in the assay on SNB-19, in the assay with SF-295, in the assay on UACC-257 and with M14 was > 100 µM (inactive) each time. Moreover, the GI50 was > 100 µM (inactive) in the assay on 786-0; > 100 µM (inactive) in the assay with COLO 205; 19.2 µM (inactive) in the assay with UO-31; 38.1 µM (inactive) in the assay with A498; > 100 µM (inactive) with OVCAR-3; 55 µM (inactive) in the assay on K562. The GI50 with HCC 2998 and in the assay with HL-60 was > 100 µM (inactive) each time.

Consider `O=[N+]([O-])c1ccc2nc(/C(=N/Nc3ccccc3)C(O)c3ccc(Cl)cc3Cl)c(O)nc2c1` (configuration not stated), for which the GI50 was > 100 µM (inactive) in the assay on HT-29; 52.4 µM (inactive) with RPMI-8226; > 100 µM (inactive) with M19-MEL; > 100 µM (inactive) in the assay with SF-295; > 100 µM (inactive) in the assay on UACC-257; > 100 µM (inactive) in the assay on M14. In addition, the GI50 in the assay with 786-0 was > 100 µM (inactive); with COLO 205, 38.9 µM (inactive); in the assay on UO-31 it was 78.9 µM (inactive); in the assay on A498, > 100 µM (inactive); in the assay on OVCAR-3 it was > 100 µM (inactive); in the assay with K562, 30 µM (inactive). For the same compound, the GI50 in the assay with HCC 2998 is > 100 µM (inactive); with OVCAR-5, > 100 µM (inactive); in the assay on HL-60 it was 21 µM (inactive).

As to `COc1cc(C2c3cc4c(cc3[C@@H](OCCN)[C@H]3COC(=O)C23)OCO4)cc(OC)c1O` (some centres not stated), the GI50 with HT-29 was 0.7 µM (active); with M19-MEL it was 0.196 µM (active); in the assay with SNB-19, 0.104 µM (active); in the assay on SF-295, 0.108 µM (active); in the assay on UACC-257 it was 1.24 µM (inactive); in the assay with M14 it was 0.383 µM (active). In addition, the GI50 was 0.082 µM (active) in the assay on 786-0; 1.7 µM (inactive) in the assay with COLO 205; 4.09 µM (inactive) in the assay with UO-31; 0.212 µM (active) with A498; 1.27 µM (inactive) in the assay on OVCAR-3; 0.181 µM (active) in the assay with K562. Also, the figures for the GI50 with HCC 2998, in the assay with OVCAR-5 and with HL-60 were 0.671 µM (active), 0.644 µM (active) and < 0.01 µM (active), respectively.
